Measurements reported in patent publication US20260042731A1, “(2,4-DICHLOROPHENOXY)ACETIC ACID ANALOGS” (CORTEVA AGRISCIENCE LLC, priority 2022, published 2026).
Like-named read-outs stand apart in the source and are kept apart here.

Experiments:
[1] = system: Amaranthus rudis (AMATA), tall water hemp; assay: Postemergence herbicide evaluation, growth of Amaranthus rudis (AMATA); format: in vivo; settings: Amaranthus tuberculatus, post-emergence, read-out: Ave. AMATA
[2] = system: weeds (ABUTH, AMATA, AMBEL, CHEAL, ERICA); assay: Postemergence herbicide evaluation, overall average % weed control across ABUTH, AMATA, AMBEL, CHEAL, ERICA; format: in vivo; settings: post-emergence, read-out: Overall Ave % Weed Control
[3] = system: Ambrosia artemisiifolia (AMBEL), common ragweed; assay: Postemergence herbicide evaluation, growth of Ambrosia artemisiifolia (AMBEL); format: in vivo; settings: Ambrosia artemisiifolia, post-emergence, read-out: AVE. AMBEL
[4] = Volatility of compounds measured by thermogravimetric analysis (TGA); format: physicochemical
[5] = system: Abutilon theophrasti (ABUTH), velvetleaf; assay: Postemergence herbicide evaluation, growth of Abutilon theophrasti (ABUTH); format: in vivo; settings: Abutilon theophrasti, post-emergence, read-out: AVE. ABUTH
[6] = system: glyphosate resistant Conyza canadensis (L.) (ERICA), horseweed; assay: Postemergence herbicide evaluation, growth of Conyza canadensis (ERICA); format: in vivo; settings: Erigeron canadensis, post-emergence, read-out: Ave. ERICA
[7] = system: Chenopodium album (CHEAL), common lambsquarters; assay: Postemergence herbicide evaluation, growth of Chenopodium album (CHEAL); format: in vivo; settings: Chenopodium album, post-emergence, read-out: Ave. CHEAL
[8] = 168 h, 280 g ae/ha, 7 DAA, percent reduction in plant size relative to untreated control
[9] = 168 h, 560 g ae/ha, 7 DAA, percent reduction in plant size relative to untreated control
[10] = 336 h, 280 g ae/ha, 14 DAA, percent reduction in plant size relative to untreated control
[11] = 336 h, 560 g ae/ha, 14 DAA, percent reduction in plant size relative to untreated control
[12] = 504 h, 280 g ae/ha, 21 DAA, percent reduction in plant size relative to untreated control
[13] = 504 h, 560 g ae/ha, 21 DAA, percent reduction in plant size relative to untreated control
[14] = 168 h, 280 g ae/ha, 7 DAA, average over the five weeds
[15] = 168 h, 560 g ae/ha, 7 DAA, average over the five weeds
[16] = 336 h, 280 g ae/ha, 14 DAA, average over the five weeds
[17] = 336 h, 560 g ae/ha, 14 DAA, average over the five weeds
[18] = 504 h, 280 g ae/ha, 21 DAA, average over the five weeds
[19] = 504 h, 560 g ae/ha, 21 DAA, average over the five weeds

Work on `O=C(COc1ccc(Cl)cc1Cl)NOc1ccccc1` [Compound D7] yielded a pest or weed control at 280 g/ha [1, 8] of 73%, a pest or weed control at 560 g/ha [1, 9] of 80% and a pest or weed control at 280 g/ha [1, 10] of 83%. For the same compound, the pest or weed control at 560 g/ha [1, 11] was 90%, the pest or weed control at 280 g/ha [1, 12] was 83% and the pest or weed control at 560 g/ha [1, 13] was 83%. It also gave a pest or weed control at 280 g/ha [2, 14] of 66%, a pest or weed control at 560 g/ha [2, 15] of 73% and a pest or weed control at 280 g/ha [2, 16] of 77%. It also gave a pest or weed control at 560 g/ha [2, 17] of 85%, a pest or weed control at 280 g/ha [2, 18] of 82% and a pest or weed control at 560 g/ha [2, 19] of 89%. The pest or weed control at 280 g/ha [3, 8] was 63%, the pest or weed control at 560 g/ha [3, 9] was 73% and the pest or weed control at 280 g/ha [3, 10] was 83%. It also gave a pest or weed control at 560 g/ha [3, 11] of 89%, a pest or weed control at 280 g/ha [3, 12] of 95% and a pest or weed control at 560 g/ha [3, 13] of 97%. The “TGA Data (rate of weight loss, volatility)” value [4] was 0.2 µg/min, the pest or weed control at 280 g/ha [5, 8] was 68% and the pest or weed control at 560 g/ha [5, 9] was 80%. For the same compound, the pest or weed control at 280 g/ha [5, 10] was 68%, the pest or weed control at 560 g/ha [5, 11] was 85% and the pest or weed control at 280 g/ha [5, 12] was 70%. It also gave a pest or weed control at 560 g/ha [5, 13] of 92%, a pest or weed control at 280 g/ha [6, 8] of 63% and a pest or weed control at 560 g/ha [6, 9] of 63%. For the same compound, the pest or weed control at 280 g/ha [6, 10] was 83%, the pest or weed control at 560 g/ha [6, 11] was 85% and the pest or weed control at 280 g/ha [6, 12] was 95%. For the same compound, the pest or weed control at 560 g/ha [6, 13] was 95%, the pest or weed control at 280 g/ha [7, 8] was 65% and the pest or weed control at 560 g/ha [7, 9] was 68%. For the same compound, the pest or weed control at 280 g/ha [7, 10] was 70%, the pest or weed control at 560 g/ha [7, 11] was 75% and the pest or weed control at 280 g/ha [7, 12] was 70%. For the same compound, the pest or weed control at 560 g/ha [7, 13] was 78%.

With `CN(NC(=O)COc1ccc(Cl)cc1Cl)C(=O)c1ccccc1` [Compound D9, N′-(2-(2,4-Dichlorophenoxy)acetyl)-N-methylbenzohydrazide] the pest or weed control at 280 g/ha [1, 8] was 65%, the pest or weed control at 560 g/ha [1, 9] was 68% and the pest or weed control at 280 g/ha [1, 10] was 75%. The pest or weed control at 560 g/ha [1, 11] was 70%, the pest or weed control at 280 g/ha [1, 12] was 83% and the pest or weed control at 560 g/ha [1, 13] was 73%. For the same compound, the pest or weed control at 280 g/ha [2, 14] was 60%, the pest or weed control at 560 g/ha [2, 15] was 63% and the pest or weed control at 280 g/ha [2, 16] was 72%. It also gave a pest or weed control at 560 g/ha [2, 17] of 75%, a pest or weed control at 280 g/ha [2, 18] of 80% and a pest or weed control at 560 g/ha [2, 19] of 75%. For the same compound, the pest or weed control at 280 g/ha [3, 8] was 60%, the pest or weed control at 560 g/ha [3, 9] was 73% and the pest or weed control at 280 g/ha [3, 10] was 83%. The pest or weed control at 560 g/ha [3, 11] was 94%, the pest or weed control at 280 g/ha [3, 12] was 85% and the pest or weed control at 560 g/ha [3, 13] was 99%. For the same compound, the “TGA Data (rate of weight loss, volatility)” value [4] was 0.2 µg/min, the pest or weed control at 280 g/ha [5, 8] was 43% and the pest or weed control at 560 g/ha [5, 9] was 43%. The pest or weed control at 280 g/ha [5, 10] was 45%, the pest or weed control at 560 g/ha [5, 11] was 48% and the pest or weed control at 280 g/ha [5, 12] was 45%. For the same compound, the pest or weed control at 560 g/ha [5, 13] was 50%, the pest or weed control at 280 g/ha [6, 8] was 65% and the pest or weed control at 560 g/ha [6, 9] was 68%. It also gave a pest or weed control at 280 g/ha [6, 10] of 83%, a pest or weed control at 560 g/ha [6, 11] of 88% and a pest or weed control at 280 g/ha [6, 12] of 94%. The pest or weed control at 560 g/ha [6, 13] was 65%, the pest or weed control at 280 g/ha [7, 8] was 65% and the pest or weed control at 560 g/ha [7, 9] was 65%. The pest or weed control at 280 g/ha [7, 10] was 73%, the pest or weed control at 560 g/ha [7, 11] was 78% and the pest or weed control at 280 g/ha [7, 12] was 95%. The pest or weed control at 560 g/ha [7, 13] was 90%.

Compound `O=C(COc1ccc(Cl)cc1Cl)OCc1ccccc1` [Compound E4, Benzyl 2-(2,4-dichlorophenoxy)acetate] has a pest or weed control at 280 g/ha ([1]; 168 h) of 68%, a pest or weed control at 560 g/ha ([1]; 168 h) of 78% and a pest or weed control at 280 g/ha ([1]; 336 h) of 65%. It also gave a pest or weed control at 560 g/ha ([1]; 336 h) of 93%, a pest or weed control at 280 g/ha ([1]; 504 h) of 70% and a pest or weed control at 560 g/ha ([1]; 504 h) of 91%. For the same compound, the pest or weed control at 280 g/ha ([2]; 168 h) was 74%, the pest or weed control at 560 g/ha ([2]; 168 h) was 77% and the pest or weed control at 280 g/ha ([2]; 336 h) was 84%. For the same compound, the pest or weed control at 560 g/ha ([2]; 336 h) was 90%, the pest or weed control at 280 g/ha ([2]; 504 h) was 90% and the pest or weed control at 560 g/ha ([2]; 504 h) was 92%. For the same compound, the pest or weed control at 280 g/ha ([3]; 168 h) was 68%, the pest or weed control at 560 g/ha ([3]; 168 h) was 73% and the pest or weed control at 280 g/ha ([3]; 336 h) was 89%. The pest or weed control at 560 g/ha ([3]; 336 h) was 97%, the pest or weed control at 280 g/ha ([3]; 504 h) was 99% and the pest or weed control at 560 g/ha ([3]; 504 h) was 99%. The “TGA Data (rate of weight loss, volatility)” value [4] was 0.4 µg/min, the pest or weed control at 280 g/ha ([5]; 168 h) was 90% and the pest or weed control at 560 g/ha ([5]; 168 h) was 90%. The pest or weed control at 280 g/ha ([5]; 336 h) was 97%, the pest or weed control at 560 g/ha ([5]; 336 h) was 97% and the pest or weed control at 280 g/ha ([5]; 504 h) was 99%. It also gave a pest or weed control at 560 g/ha ([5]; 504 h) of 98%, a pest or weed control at 280 g/ha ([6]; 168 h) of 70% and a pest or weed control at 560 g/ha ([6]; 168 h) of 75%. For the same compound, the pest or weed control at 280 g/ha ([6]; 336 h) was 88%, the pest or weed control at 560 g/ha ([6]; 336 h) was 93% and the pest or weed control at 280 g/ha ([6]; 504 h) was 95%. The pest or weed control at 560 g/ha ([6]; 504 h) was 99%, the pest or weed control at 280 g/ha ([7]; 168 h) was 73% and the pest or weed control at 560 g/ha ([7]; 168 h) was 70%. The pest or weed control at 280 g/ha ([7]; 336 h) was 83%, the pest or weed control at 560 g/ha ([7]; 336 h) was 73% and the pest or weed control at 280 g/ha ([7]; 504 h) was 88%. For the same compound, the pest or weed control at 560 g/ha ([7]; 504 h) was 75%.
